Source: patent publication US10420749B2, “Crystalline form of lorlatinib free base” (Pfizer Inc., priority 2015, dated 2019)
“Also recorded” adds a separate entry of the source.

What was measured:
Format in all cases: physicochemical
[1] = Thermodynamic stability: slurry experiments, solid form evaluated by PXRD; conditions: for Slurry Output (solid form): 2 weeks
Protocol: The thermodynamic stability of anhydrous lorlatinib free base (Form 7) was evaluated employing slurry experiments under a range of water activity and temperature conditions. […] After 2 weeks, the solids in equilibrium were isolated and the solid form was evaluated by PXRD.

[2] = Physical stability in the drug product by FT-Raman and Solid State NMR spectroscopy; conditions: for amount of physical impurity: in drug product
Source text: The physical stabilities of lorlatinib Form 7 and acetic acid solvate in the drug product were investigated under a variety of conditions using FT-Raman and Solid State NMR spectroscopy.

[3] = Solid-state physical stability of Form 7 API at elevated humidity / accelerated conditions
Source text: The physical stability of anhydrous lorlatinib free base (Form 7) API was investigated at elevated relative humidities (% RH) for extended time period and at accelerated stability conditions for shorter period.

C[C@H]1Oc2cc(cnc2N)-c2c(nn(C)c2C#N)CN(C)C(=O)c2ccc(F)cc21 [Form 7, (10R)-7-amino-12-fluoro-2,10,16-trimethyl-15-oxo-10,15,16,17-tetrahydro-2H-8,4-(metheno)pyrazolo[4,3-h][2,5,11]benzoxadiazacyclotetradecine-3-carbonitrile]
Slurry Output (solid form) ([1]; IPA, water activity 0.25, 5° C.): Form 16 | Slurry Output (solid form) ([1]; IPA, water activity 0.25, 40° C.): Form 7 | Slurry Output (solid form) ([1]; IPA, water activity 0.25, RT): Form 7 | Slurry Output (solid form) ([1]; IPA, water activity 0.50, 5° C.): Form 13 | Slurry Output (solid form) ([1]; IPA, water activity 0.50, 40° C.): Form 5 | Slurry Output (solid form) ([1]; IPA, water activity 0.50, RT): Form 13 | Slurry Output (solid form) ([1]; IPA, water activity 0.70, 5° C.): Form 13 | Slurry Output (solid form) ([1]; IPA, water activity 0.70, 40° C.): Form 5 | Slurry Output (solid form) ([1]; IPA, water activity 0.70, RT): Form 13 | Slurry Output (solid form) ([1]; IPA, water activity 0.90, 5° C.): Form 13 | Slurry Output (solid form) ([1]; IPA, water activity 0.90, 40° C.): Form 13 | Slurry Output (solid form) ([1]; IPA, water activity 0.90, RT): Form 13 | Slurry Output (solid form) ([1]; MiBK, water activity 0, 5° C.): Form 7 | Slurry Output (solid form) ([1]; MiBK, water activity 0, 40° C.): Form 7 | Slurry Output (solid form) ([1]; MiBK, water activity 0, RT): Form 7 | Slurry Output (solid form) ([1]; TBME, water activity 0, 5° C.): Form 7 | Slurry Output (solid form) ([1]; TBME, water activity 0, 40° C.): Form 7 | Slurry Output (solid form) ([1]; TBME, water activity 0, RT): Form 7 | Slurry Output (solid form) ([1]; Toluene, water activity 0, 5° C.): Form 7 | Slurry Output (solid form) ([1]; Toluene, water activity 0, 40° C.): Form 7 | Slurry Output (solid form) ([1]; Toluene, water activity 0, RT): Form 7 | Slurry Output (solid form) ([1]; Water, water activity 1.00, 5° C.): Form 7 + Form 18 | Slurry Output (solid form) ([1]; Water, water activity 1.00, 40° C.): Form 7 | Slurry Output (solid form) ([1]; Water, water activity 1.00, RT): Form 18 | Thermodynamic stability, overall outcome of slurry experiments ([1]; diverse solvent systems, 5° C., room temperature and 40° C., water activities 0.25 to 1.00, 2 weeks): does not convert to a different anhydrous solid state | Slurry Output (solid form) ([1]; iProAc, water activity 0, 5° C.): Form 7 | Slurry Output (solid form) ([1]; iProAc, water activity 0, 40° C.): Form 7 | Slurry Output (solid form) ([1]; iProAc, water activity 0, RT): Form 7 | Slurry Output (solid form) ([1]; nBuOH, water activity 0, 5° C.): Form 7 | Slurry Output (solid form) ([1]; nBuOH, water activity 0, 40° C.): Form 7 | Slurry Output (solid form) ([1]; nBuOH, water activity 0, RT): Form 20 | amount of physical impurity ([2]; 25° C./60% RH, 12 months): No change detected | amount of physical impurity ([2]; 30° C./65% RH, 12 months): No change detected | amount of physical impurity ([2]; 50° C./75% RH, 2 weeks): No change detected | amount of physical impurity ([2]; 70° C./10% RH, 3 weeks): No change detected | amount of physical impurity ([2]; 70° C./40% RH, 2 weeks): No change detected | amount of physical impurity ([2]; 70° C./75% RH, 1 week): No change detected | physical stability relative to the acetic acid solvate of lorlatinib free base ([2]; representative drug product formulation): superior physical stability | Solid Form after storage (physical stability) ([3]; 70° C./75% RH, 1 week): did not undergo any physical change; also recorded: Form 7 | Solid Form after storage (physical stability) ([3]; 75% RH, ambient temperature, 12 months): did not undergo any physical change; also recorded: Form 7 | Solid Form after storage (physical stability) ([3]; 80° C./40% RH, 1 week): Form 7 | Physical change after storage (physical stability) ([3]; 80° C./75% RH, 1 week (as printed in text)): did not undergo any physical change | Solid Form after storage (physical stability) ([3]; 90% RH, ambient temperature, 12 months): did not undergo any physical change; also recorded: Form 7

CC(=O)O.C[C@H]1Oc2cc(cnc2N)-c2c(nn(C)c2C#N)CN(C)C(=O)c2ccc(F)cc21 [lorlatinib acetic acid solvate, reference compound]
amount of physical impurity ([2]; 70° C./10% RH, 3 weeks): impurity >50% | amount of physical impurity ([2]; 70° C./40% RH, 2 weeks): impurity >50% | amount of physical impurity ([2]; 70° C./75% RH, 1 week): impurity >50%
